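48-hour exposure; five concentrations; linearly interpolated endpoints. The concentration for 50% growth inhibition is given as GI50.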 Active and inactive are the calls of the source. Rule as the data show it: active = GI50 up to about 1.1 µM and inactive = higher.
Legend:
Assay in all cases: NCI anticancer screen, dose series, 48 h
ACHN = test system: ACHN
BT-549 = test system: BT-549
CAKI-1 = test system: CAKI-1
COLO 205 = test system: COLO 205
EKVX = test system: EKVX
HCC 2998 = test system: HCC 2998
HL-60 = test system: HL-60
HOP-92 = test system: HOP-92
M14 = test system: M14
MDA-MB-231 = test system: MDA-MB-231
MOLT-4 = test system: MOLT-4
NCI-H522 = test system: NCI-H522
OVCAR-4 = test system: OVCAR-4
OVCAR-8 = test system: OVCAR-8
RPMI-8226 = test system: RPMI-8226
SK-MEL-5 = test system: SK-MEL-5
SK-OV-3 = test system: SK-OV-3
SN12C = test system: SN12C
T47D = test system: T47D
TK-10 = test system: TK-10

Measured: GI50

COc1ccc(C2=C(N)c3ccccc3C2=O)cc1
inactive: ACHN 63.2 µM | BT-549 48.6 µM | CAKI-1 > 100 µM | COLO 205 > 100 µM | EKVX > 100 µM | HCC 2998 > 100 µM | HL-60 > 100 µM | HOP-92 27.9 µM | M14 > 100 µM | MDA-MB-231 32.5 µM | MOLT-4 > 100 µM | NCI-H522 69 µM | OVCAR-4 96.4 µM | OVCAR-8 37.8 µM | RPMI-8226 > 100 µM | SK-MEL-5 > 100 µM | SK-OV-3 43 µM | SN12C > 100 µM | T47D > 100 µM | TK-10 45.1 µM

N#Cc1nc(COCCOCc2ccccc2)oc1N
inactive: ACHN > 100 µM | BT-549 88.9 µM | CAKI-1 > 100 µM | COLO 205 > 100 µM | EKVX > 100 µM | HCC 2998 > 100 µM | HL-60 > 100 µM | HOP-92 > 100 µM | M14 > 100 µM | MDA-MB-231 > 100 µM | MOLT-4 > 100 µM | NCI-H522 23 µM | OVCAR-4 > 100 µM | OVCAR-8 > 100 µM | RPMI-8226 > 100 µM | SK-MEL-5 > 100 µM | SK-OV-3 > 100 µM | SN12C > 100 µM | T47D > 100 µM | TK-10 > 100 µM

CCCCCCCCNC(=O)C1=C(C)NC(C)=C(C(=O)NCCCCCCCC)C1
inactive: ACHN 92.7 µM | BT-549 > 100 µM | CAKI-1 > 100 µM | COLO 205 > 100 µM | EKVX > 100 µM | HCC 2998 > 100 µM | HL-60 > 100 µM | HOP-92 > 100 µM | M14 > 100 µM | MDA-MB-231 69.3 µM | MOLT-4 > 100 µM | NCI-H522 > 100 µM | OVCAR-4 > 100 µM | OVCAR-8 > 100 µM | RPMI-8226 71 µM | SK-MEL-5 > 100 µM | SK-OV-3 > 100 µM | SN12C > 100 µM | T47D 48.2 µM | TK-10 > 100 µM

Cc1nc(-n2nc(-c3ccccc3)cc2-c2ccccc2)sc1C(=O)/C=C/c1ccc([N+](=O)[O-])cc1
inactive: ACHN 26.5 µM | BT-549 13.2 µM | CAKI-1 24.9 µM | COLO 205 24.4 µM | EKVX > 43 µM | HCC 2998 16.2 µM | HL-60 17.2 µM | HOP-92 > 56.5 µM | M14 27.6 µM | MDA-MB-231 33.1 µM | MOLT-4 10.9 µM | NCI-H522 16.5 µM | OVCAR-4 34.1 µM | OVCAR-8 17.7 µM | RPMI-8226 10.5 µM | SK-MEL-5 16.6 µM | SK-OV-3 > 65.8 µM | SN12C 29.1 µM | T47D 9.25 µM | TK-10 41.5 µM

Nc1nc2c(c(-c3ccccc3Cl)n1)COC/C2=C\c1ccccc1Cl
inactive: ACHN 17.9 µM | BT-549 16 µM | CAKI-1 16.3 µM | COLO 205 16.3 µM | EKVX 18.3 µM | HCC 2998 19.5 µM | HL-60 3.08 µM | HOP-92 14.8 µM | M14 15.7 µM | MDA-MB-231 16.9 µM | MOLT-4 12.9 µM | NCI-H522 14.6 µM | OVCAR-4 19.7 µM | OVCAR-8 16 µM | RPMI-8226 10.6 µM | SK-MEL-5 16.4 µM | SK-OV-3 16.1 µM | SN12C 16.6 µM | T47D 17.1 µM | TK-10 17.6 µM

CC(C)SC(=S)Sc1c(Cl)c(Cl)nc(Cl)c1Cl
inactive: ACHN 6.98 µM | BT-549 15.3 µM | CAKI-1 2.84 µM | COLO 205 8.55 µM | EKVX 8.22 µM | HCC 2998 3.31 µM | HL-60 2.44 µM | HOP-92 7.69 µM | M14 12.4 µM | MDA-MB-231 12.7 µM | MOLT-4 2.65 µM | NCI-H522 4.9 µM | OVCAR-4 13.6 µM | OVCAR-8 3.46 µM | RPMI-8226 1.75 µM | SK-MEL-5 14.8 µM | SK-OV-3 17.8 µM | SN12C 13 µM | T47D 1.96 µM | TK-10 5.97 µM

Reference: ChEMBL document CHEMBL1201862, “PubChem BioAssay data set” (2004)
